The subject of the assay is A. fumigatus CEA10 reference strain. The assay is described as follows: Fluconazole potentiator screen: MIC by CLSI microbroth dilution with and without fluconazole. It counts as cell-based, Aspergillus fumigatus. Particulars: for MIC: Aspergillus fumigatus, read-out: MIC (ug/mL) (−) Fluc; for MIC / MIC (ug/mL) (+) Fluc: 18 h; for MIC (ug/mL) (+) Fluc: with 32 μg/ml fluconazole, normoxia, GMM, 37 °C; for loss in potentiating the fluconazole: analogs of MBX-7591; for potency / potentiation of fluconazole (in words): structure-activity statements, fluconazole potentiator screen. Background: Dilution methods test growth across graded concentrations, often in twofold steps.

Consider `O=C(c1ccccc1Cl)N1CCC(Cc2ccc(COc3ccncc3)cc2)CC1` [MBX-8091], for which the MIC was more than 21 µg/mL and the “MIC (ug/mL) (+) Fluc” value is more than 21 µg/mL.

Take `O=C(c1cncs1)N1CCC(Cc2ccc(COc3ccncc3)cc2)CC1` [MBX-8098]: the MIC came out at 5.5 µg/mL, the “loss in potentiating the fluconazole” value is “more than 4 fold” and the “MIC (ug/mL) (+) Fluc” value is 2.50 µg/mL.

As for `CC(c1cccs1)N1CCC2(CC1)CC(CCOc1ccncc1)CCO2` (stereo not shown) [MBX-7954], the MIC is more than 77 µg/mL and the “MIC (ug/mL) (+) Fluc” value was more than 77 µg/mL.

For the molecule `CC(c1ccc(CC2CCN(S(=O)(=O)c3cccc(F)c3)CC2)cc1)N1CCOCC1` (stereo not shown) [MBX-8358], the MIC turned out to be 2.79 µg/mL and the “MIC (ug/mL) (+) Fluc” value was determined as 0.44 µg/mL.

Consider `O=S(=O)(c1cccc(F)c1)N1CCC(Cc2ccc(CN3CC4CC(C3)O4)cc2)CC1` [MBX-8221], for which the MIC was more than 17 µg/mL and the “MIC (ug/mL) (+) Fluc” value is more than 22 µg/mL.

Take `Cc1cccc(S(=O)(=O)N2CCC3(CC2)CC(CCOc2ccncc2)CCO3)c1` (stereo not shown) [MBX-7870]: the MIC is more than 17 µg/mL and the “MIC (ug/mL) (+) Fluc” value amounted to 6.09 µg/mL.

In the case of `CCc1ccc(C(=O)N2CCC(Cc3ccc(COc4ccncc4)cc3)CC2)cc1` [MBX-8087], the MIC amounted to 13 µg/mL and the “MIC (ug/mL) (+) Fluc” value is more than 18 µg/mL.

With `CC(c1ccsc1)N1CCC(Cc2ccc(COc3ccncc3)cc2)CC1` (stereo not shown) [MBX-7821], the MIC is more than 15 µg/mL and the “MIC (ug/mL) (+) Fluc” value is more than 15 µg/mL.

On to `O=S(=O)(c1ccc(Cl)s1)N1CCC2(CC1)CC(CCOc1ccncc1)CCO2` (stereo not shown) [MBX-7912], for which the MIC came out at 0.36 µg/mL, the “potency / potentiation of fluconazole (in words)” value (shortened to “potency / potentiation”) was “the most potent” and the “MIC (ug/mL) (+) Fluc” value was found to be 0.18 µg/mL.

For `O=S(=O)(c1ccc(F)cc1)N1CCC(Cc2ccc(CN3CCOCC3)cc2)CC1` [MBX-8145], the MIC came out at 0.3 µg/mL and the “MIC (ug/mL) (+) Fluc” value amounted to 0.08 µg/mL. Also, the “increase in potentiation of fluconazole” value (morpholine series, para-fluorophenyl substitution) stood at 6 fold.

Regarding `O=S(=O)(c1cccnc1)N1CCC2(CC1)CC(CCOc1ccncc1)CCO2` (stereo not shown) [MBX-7874], the MIC is more than 16 µg/mL and the “MIC (ug/mL) (+) Fluc” value was more than 16 µg/mL.

As for `O=C(c1ccc(Cl)s1)N1CCC(Cc2ccc(COc3ccncc3)cc2)CC1` [MBX-8095], the MIC is 6.7 µg/mL, the “loss in potentiating the fluconazole” value is “more than 4 fold” and the “MIC (ug/mL) (+) Fluc” value was 3.80 µg/mL.

In the case of `O=S(=O)(c1cccc(F)c1)N1CCC(C(O)c2ccc(CN3CCOCC3)cc2)CC1` (stereo not shown) [MBX-8355], the MIC was more than 22 µg/mL and the “MIC (ug/mL) (+) Fluc” value is more than 22 µg/mL.

Take `O=S(=O)(c1ccc(Cl)cc1)N1CCC2(CC1)CC(CCOc1ccncc1)CCO2` (stereo not shown) [MBX-7877]: the MIC turned out to be 3.19 µg/mL and the “MIC (ug/mL) (+) Fluc” value is 0.80 µg/mL.

With `O=S(=O)(c1ccc(Cl)s1)N1CCC(Cc2ccc(CN3CCOCC3)cc2)CC1` [MBX-8193], the MIC stood at 0.63 µg/mL and the “MIC (ug/mL) (+) Fluc” value was determined as 0.18 µg/mL.

As to `O=C(c1ccsc1)N1CCN(Cc2ccc(COc3ccncc3)cc2)CC1` [MBX-8030], the MIC worked out at 1.9 µg/mL and the “MIC (ug/mL) (+) Fluc” value was 0.50 µg/mL.

As to `O=C(c1ccsc1)N1CCC(Oc2ccc(COc3ccncc3)cc2)CC1` [MBX-8309], the MIC was found to be 19 µg/mL and the “MIC (ug/mL) (+) Fluc” value was determined as 19.00 µg/mL.

Turning to `O=C(c1ccc(C(F)(F)F)nc1)N1CCC(Cc2ccc(COc3ccncc3)cc2)CC1` [MBX-8089], the MIC was more than 22 µg/mL, the “potency / potentiation” value was “did not result in appreciable increase in potency” and the “MIC (ug/mL) (+) Fluc” value is more than 20 µg/mL.

Regarding `O=C(N1CCC(Cc2ccc(COc3ccncc3)cc2)CC1)C12CC(C1)C2` [MBX-8090], the MIC came out at 18.8 µg/mL and the “MIC (ug/mL) (+) Fluc” value worked out at 13.30 µg/mL.

In the case of `O=S(=O)(c1cncs1)N1CCC2(CC1)CC(CCOc1ccncc1)CCO2` (stereo not shown) [MBX-7959], the MIC was 21.2 µg/mL and the “MIC (ug/mL) (+) Fluc” value came to 4.20 µg/mL.

As for `O=C(c1ccsc1)N1CC2(CC(CCOc3ccncc3)C2)C1` [MBX-8285], the MIC was found to be 4.11 µg/mL and the “MIC (ug/mL) (+) Fluc” value was determined as 2.05 µg/mL.

Take `O=C(c1ccsc1)N1CCC(c2ccc(COc3ccncc3)cc2)CC1` [MBX-8066]: the MIC came out at 1.2 µg/mL and the “MIC (ug/mL) (+) Fluc” value turned out to be 0.90 µg/mL.

`CC(C)(C)c1ccc(C(=O)N2CCC(Cc3ccc(COc4ccncc4)cc3)CC2)cc1` [MBX-8094]: the MIC was more than 22 µg/mL and the “MIC (ug/mL) (+) Fluc” value is more than 22 µg/mL.

Regarding `CC(c1ccc(CC2CCN(S(=O)(=O)c3ccc(F)cc3)CC2)cc1)N1CCOCC1` (stereo not shown) [MBX-8357], the MIC was more than 22 µg/mL and the “MIC (ug/mL) (+) Fluc” value is 5.60 µg/mL.

Take `COc1c(F)cccc1S(=O)(=O)N1CCC2(CC1)CC(CCOc1ccncc1)CCO2` (stereo not shown) [MBX-7958]: the MIC was more than 92 µg/mL and the “MIC (ug/mL) (+) Fluc” value was more than 92 µg/mL.

In the case of `O=C(c1ccc(O)cc1)N1CCC(Cc2ccc(COc3ccncc3)cc2)CC1` [MBX-7802], the MIC was more than 16 µg/mL and the “MIC (ug/mL) (+) Fluc” value is more than 16 µg/mL.

As for `O=C(O)c1cccc(S(=O)(=O)N2CCC3(CC2)CC(CCOc2ccncc2)CCO3)c1` (stereo not shown) [MBX-7962], the MIC is more than 92 µg/mL and the “MIC (ug/mL) (+) Fluc” value was more than 92 µg/mL.

In the case of `O=C(c1ccsc1)N1CCC(Cc2ccc(CCc3ccncc3)cc2)CC1` [MBX-8026], the MIC is 2.4 µg/mL, the “potency / potentiation” value is “maintained potency” and the “MIC (ug/mL) (+) Fluc” value was determined as 0.80 µg/mL.

`O=S(=O)(c1ccc(F)cc1)N1CC2(CC(Cc3ccc(CN4CCOCC4)cc3)C2)C1` [MBX-8345]: the MIC was more than 22 µg/mL and the “MIC (ug/mL) (+) Fluc” value was 11.00 µg/mL.

Take `O=C(c1ccc(CC2CCN(S(=O)(=O)c3cccc(F)c3)CC2)cc1)N1CCOCC1` [MBX-8188]: the MIC is more than 22 µg/mL, the “potency / potentiation” value is “not tolerated” and the “MIC (ug/mL) (+) Fluc” value was more than 22 µg/mL.

Regarding `O=S(=O)(c1cccs1)N1CCC2(CC1)CC(CCN1CCOCC1)CCO2` (stereo not shown) [MBX-8245], the MIC is more than 20 µg/mL and the “MIC (ug/mL) (+) Fluc” value is more than 20 µg/mL.

On to `O=S(=O)(c1cccs1)N1CCC2(CCc3cc(Oc4ccncc4)ccc3O2)CC1` [MBX-8435], for which the MIC was more than 22 µg/mL and the “MIC (ug/mL) (+) Fluc” value is more than 22 µg/mL.

As to `O=C(c1ccc2c(c1)OCCO2)N1CCC(Cc2ccc(COc3ccncc3)cc2)CC1` [MBX-7772], the MIC was 12.6 µg/mL and the “MIC (ug/mL) (+) Fluc” value was determined as 12.60 µg/mL.

In the case of `O=C(c1ccsc1)N1CCC(Cc2ccc(COc3cccnc3)cc2)CC1` [MBX-8065], the MIC is more than 19 µg/mL, the “potency / potentiation” value is “complete loss of activity” and the “MIC (ug/mL) (+) Fluc” value is more than 19 µg/mL.

In the case of `O=S(=O)(c1ccsc1)N1CCC(Cc2ccc(COc3ccncc3)cc2)CC1` [MBX-7822], the MIC is more than 6 µg/mL; the “potency / potentiation” value was “the only linker reasonably tolerated, apart from the amide”; the “MIC (ug/mL) (+) Fluc” value was determined as 1.07 µg/mL.

In the case of `N#Cc1cccc(S(=O)(=O)N2CCC3(CC2)CC(CCOc2ccncc2)CCO3)c1` (stereo not shown) [MBX-7910], the MIC was more than 88 µg/mL and the “MIC (ug/mL) (+) Fluc” value was determined as 22.00 µg/mL.

Turning to `O=S(=O)(c1ccccc1)N1CCC2(CC1)CC(CCOc1ccncc1)CCO2` (stereo not shown) [MBX-7868], the MIC amounted to 8.33 µg/mL and the “MIC (ug/mL) (+) Fluc” value was determined as 2.08 µg/mL.

`O=C(c1ccsc1)N1CC[C@@H](Cc2ccc(COc3ccncc3)cc2)C1` [MBX-8431]: the MIC stood at 3.78 µg/mL and the “MIC (ug/mL) (+) Fluc” value worked out at 1.14 µg/mL.

On to `COc1cccc(S(=O)(=O)N2CCC3(CC2)CC(CCOc2ccncc2)CCO3)c1` (stereo not shown) [MBX-7952], for which the MIC came to 11.2 µg/mL and the “MIC (ug/mL) (+) Fluc” value was determined as 2.79 µg/mL.

For the molecule `O=S(=O)(c1ccc(Cl)cc1)N1CCC(Cc2ccc(CN3CCOCC3)cc2)CC1` [MBX-8146], the MIC was 0.28 µg/mL, the “potency / potentiation” value is “maintain activity in the morpholine series” and the “MIC (ug/mL) (+) Fluc” value was found to be 0.14 µg/mL.

Turning to `O=S(=O)(c1ccsc1)N1CCc2cc(COc3ccncc3)ccc2C1` [MBX-8307], the MIC stood at 4.8 µg/mL and the “MIC (ug/mL) (+) Fluc” value was 2.40 µg/mL.

`O=C(c1cccc(F)c1)N1CCC(Cc2ccc(CN3CCOCC3)cc2)CC1` [MBX-8032]: the MIC stood at 3.1 µg/mL and the “MIC (ug/mL) (+) Fluc” value came out at 8.80 µg/mL.

`O=C(c1ccsc1)N1CCC(Cc2ccc(CCOc3ccncc3)cc2)CC1` [MBX-8028]: the MIC turned out to be 0.4 µg/mL and the “MIC (ug/mL) (+) Fluc” value was determined as 0.60 µg/mL.

In the case of `O=C(c1cscn1)N1CCC(Cc2ccc(COc3ccncc3)cc2)CC1` [MBX-8099], the MIC amounted to 7.81 µg/mL, the “loss in potentiating the fluconazole” value is “more than 4 fold” and the “MIC (ug/mL) (+) Fluc” value worked out at 3.10 µg/mL.

On to `N#Cc1ccc(OCc2ccc(CC3CCN(C(=O)c4ccsc4)CC3)cc2)cc1` [MBX-8027], for which the MIC was more than 83 µg/mL and the “MIC (ug/mL) (+) Fluc” value is more than 83 µg/mL.

In the case of `O=C(c1ccc2sccc2c1)N1CCC(Cc2ccc(COc3ccncc3)cc2)CC1` [MBX-8096], the MIC was more than 22 µg/mL and the “MIC (ug/mL) (+) Fluc” value was more than 22 µg/mL.

`CN1CCN(S(=O)(=O)N2CCC3(CC2)CC(CCOc2ccncc2)CCO3)CC1` (stereo not shown) [MBX-7951]: the MIC was more than 87 µg/mL, the “potency / potentiation” value is listed as “complete loss of activity” and the “MIC (ug/mL) (+) Fluc” value was more than 87 µg/mL.

`O=C(c1ccccc1F)N1CCC(Cc2ccc(COc3ccncc3)cc2)CC1` [MBX-7769]: the MIC was determined as 11.4 µg/mL and the “MIC (ug/mL) (+) Fluc” value was determined as 8.09 µg/mL.

As to `O=S(=O)(NC1CCC(Cc2ccc(CN3CCOCC3)cc2)CC1)c1ccc(F)cc1` (stereo not shown) [MBX-8283], the MIC was more than 22 µg/mL and the “MIC (ug/mL) (+) Fluc” value was more than 22 µg/mL.

On to `O=C(c1ccc(Cl)s1)N1CCC2(CC1)CC(CCOc1ccncc1)CCO2` (stereo not shown) [MBX-8433], for which the MIC was found to be 2.53 µg/mL and the “MIC (ug/mL) (+) Fluc” value amounted to 0.84 µg/mL.

As to `O=S(=O)(N1CCOCC1)N1CCC2(CC1)CC(CCOc1ccncc1)CCO2` (stereo not shown) [MBX-7950], the MIC was 26.8 µg/mL, the “potency / potentiation” value was “complete loss of activity” and the “MIC (ug/mL) (+) Fluc” value was 13.40 µg/mL.

Values taken from US20260373138A1, “COMPOUNDS WITH ANTIFUNGAL PROPERTIES” (priority 2023, published 2026).
